We go through 19 molecules from patent US20070299092A1 (Wyeth, priority 2004, published 2007).

Where two headings read alike, the source gives them in different places.

For assay [1], the target named is T1, human KDR (VEGF-receptor-2) (Homo sapiens, UniProt P35968).
T1 construct: beginning at Met-806; (5′-ATG GAT CCA GAT GM CTC CCA TTG) and ending at Val-1356; made in house
The experiment in a line: KDR kinase enzyme assay (DELFIA, KDR-IC-Flag, poly(Glu4-Tyr) peptide). It counts as biochemical. To be noted: for inhibition at 0.1 µM: Concentration 100 nM; for inhibition at 1 µM: Concentration 1000 nM.

For another assay, the target named is KDR (Homo sapiens, UniProt P35968). The experiment in a line: cell-based. To be noted: read-out: % Inhibition of KDR kinase autophosphorylation in KDR15 cells, compound conc. 1000 nM.
Chain of KDR (P35968 20-1356): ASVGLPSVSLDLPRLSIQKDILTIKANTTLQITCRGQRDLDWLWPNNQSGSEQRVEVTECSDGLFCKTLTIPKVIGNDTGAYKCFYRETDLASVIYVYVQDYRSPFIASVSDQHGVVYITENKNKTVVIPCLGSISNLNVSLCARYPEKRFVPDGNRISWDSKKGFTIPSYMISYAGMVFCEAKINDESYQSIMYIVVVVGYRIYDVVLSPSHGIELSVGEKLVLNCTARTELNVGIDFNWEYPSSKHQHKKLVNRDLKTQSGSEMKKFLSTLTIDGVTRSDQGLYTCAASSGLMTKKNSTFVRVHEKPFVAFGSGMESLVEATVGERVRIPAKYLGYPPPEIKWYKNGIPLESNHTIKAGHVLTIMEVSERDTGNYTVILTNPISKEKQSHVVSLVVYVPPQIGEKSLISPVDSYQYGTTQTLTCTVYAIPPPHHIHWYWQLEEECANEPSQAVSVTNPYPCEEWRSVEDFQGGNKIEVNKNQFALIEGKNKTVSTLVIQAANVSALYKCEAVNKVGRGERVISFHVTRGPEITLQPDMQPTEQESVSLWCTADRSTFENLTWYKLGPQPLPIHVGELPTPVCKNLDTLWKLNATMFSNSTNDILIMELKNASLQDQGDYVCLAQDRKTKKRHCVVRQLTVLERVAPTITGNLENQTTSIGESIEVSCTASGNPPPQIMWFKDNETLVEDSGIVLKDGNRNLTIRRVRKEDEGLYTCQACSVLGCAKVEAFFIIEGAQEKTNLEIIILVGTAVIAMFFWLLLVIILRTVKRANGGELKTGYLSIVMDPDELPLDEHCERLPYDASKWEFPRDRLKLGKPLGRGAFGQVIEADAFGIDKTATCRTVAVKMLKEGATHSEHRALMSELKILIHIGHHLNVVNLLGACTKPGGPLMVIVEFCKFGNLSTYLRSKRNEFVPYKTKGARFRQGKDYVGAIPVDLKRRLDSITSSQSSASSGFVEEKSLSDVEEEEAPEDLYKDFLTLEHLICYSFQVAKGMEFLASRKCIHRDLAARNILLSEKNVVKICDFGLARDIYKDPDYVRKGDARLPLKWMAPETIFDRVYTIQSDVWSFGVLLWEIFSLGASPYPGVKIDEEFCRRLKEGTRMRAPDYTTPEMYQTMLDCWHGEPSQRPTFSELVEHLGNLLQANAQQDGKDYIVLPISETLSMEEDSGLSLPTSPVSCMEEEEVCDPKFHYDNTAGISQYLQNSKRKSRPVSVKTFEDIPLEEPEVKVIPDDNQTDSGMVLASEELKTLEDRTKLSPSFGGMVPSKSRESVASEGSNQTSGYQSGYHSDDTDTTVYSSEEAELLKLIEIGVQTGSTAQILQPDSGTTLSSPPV
Setting [2] is: ATP conc. 10 μM, read-out: % Inhibition.
The mark [3] stands for this setting: ATP conc. 1000 μM, read-out: % Inhibition.

T1 sequence (P35968 806-1356): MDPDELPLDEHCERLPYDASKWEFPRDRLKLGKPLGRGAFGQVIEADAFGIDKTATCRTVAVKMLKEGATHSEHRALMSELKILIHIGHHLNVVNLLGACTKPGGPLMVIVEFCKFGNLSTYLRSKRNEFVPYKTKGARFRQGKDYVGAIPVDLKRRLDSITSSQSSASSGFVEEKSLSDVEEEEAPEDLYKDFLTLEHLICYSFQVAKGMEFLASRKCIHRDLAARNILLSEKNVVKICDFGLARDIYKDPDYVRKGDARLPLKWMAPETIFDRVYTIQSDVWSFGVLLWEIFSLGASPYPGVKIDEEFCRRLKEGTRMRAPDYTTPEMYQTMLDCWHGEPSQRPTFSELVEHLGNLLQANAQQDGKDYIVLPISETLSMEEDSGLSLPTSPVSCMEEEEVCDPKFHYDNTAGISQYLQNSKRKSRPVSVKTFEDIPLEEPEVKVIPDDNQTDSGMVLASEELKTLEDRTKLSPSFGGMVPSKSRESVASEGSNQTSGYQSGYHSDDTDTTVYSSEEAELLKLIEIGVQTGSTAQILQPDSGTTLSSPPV

What is called inhibition is the relative decrease from the control value, in per cent. Take `COc1cc2ncnc(NC3=CC(=O)C4(C)OC4C3=O)c2cc1OC` (stereo not shown) [Example 5, 4-[(6,7-dimethoxy-4-quinazolinyl)amino]-1-methyl-7-oxabicyclo[4.1.0]hept-3-ene-2,5-dione]: the inhibition at 0.1 µM in assay [1] (setting [2]) was 18%. Further, the inhibition at 1 µM was 49% in assay [1] (setting [2]), 60% in assay [1] (setting [3]) and 56% at KDR.
`COCCOc1cc2ncnc(NC3=CC(=O)C(Oc4ccc(CCN)cc4)=CC3=O)c2cc1OC` [Example 54, 2-[4-(2-aminoethyl)phenoxy]-5-{[6-methoxy-7-(2-methoxyethoxy)quinazolin-4-yl]amino}benzo-1,4-quinone]: the inhibition at 0.1 µM in assay [1] (setting [2]) was -2%. The values for the inhibition at 1 µM (in assay [1] (setting [2]); at KDR) were 10% and -5%, respectively.
For orientation: IC50 means the concentration that gives 50% inhibition. High values mean a need for much substance, low ones inhibition by little substance. With `COCCOc1cc2ncnc(NC3=CC(=O)C(Oc4ccc(Oc5ccccc5)cc4)=CC3=O)c2cc1OC` [Example 29, 2-{[6-methoxy-7-(2-methoxyethoxy)quinazolin-4-yl]amino}-5-(4-phenoxyphenoxy)benzo-1,4-quinone], in assay [1] (ATP conc. 10 μM), it took 0.0377 µM to reach half-maximal inhibition (IC50), the inhibition at 0.1 µM turned out to be 62% and the inhibition at 1 µM is 92%. Besides, in assay [1] (ATP conc. 1000 μM), the inhibition at 1 µM was 95%. In addition, the inhibition at 1 µM at KDR is 30%.
As to `CCOC(=O)Cc1ccc(OC2=CC(=O)C(Nc3ncnc4cc(OCCOC)c(OC)cc34)=CC2=O)cc1` [Example 37, ethyl {4-[(4-{[6-methoxy-7-(2-methoxyethoxy)quinazolin-4-yl]amino}-3,6-dioxocyclohexa-1,4-dien-1-yl)oxy]phenyl}acetate], in assay [1] (setting [2]), the inhibition at 0.1 µM was found to be 89% and the inhibition at 1 µM was 93%. Moreover, the inhibition at 1 µM at KDR was 11%.
Turning to `COCCOc1cc2ncnc(NC3=CC(=O)C(Oc4ccc(CCC(=O)OC)cc4)=CC3=O)c2cc1OC` [Example 40, methyl 3-{4-[(4-{[6-methoxy-7-(2-methoxyethoxy)quinazolin-4-yl]amino}-3,6-dioxocyclohexa-1,4-dien-1-yl)oxy]phenyl}propanoate], the inhibition at 0.1 µM in assay [1] (setting [2]) came to 92%. Also, the inhibition at 1 µM amounted to 94% in assay [1] (setting [2]) and 110% at KDR.
In the same order, the values of `COCCOc1cc2ncnc(NC3=CC(=O)C(Oc4ccc(C(=O)OCc5ccccc5)cc4)=CC3=O)c2cc1OC` [Example 48, benzyl 4-[(4-{[6-methoxy-7-(2-methoxyethoxy)quinazolin-4-yl]amino}-3,6-dioxocyclohexa-1,4-dien-1-yl)oxy]benzoate] are 86%, 93% and 74%.
For `COCCOc1cc2ncnc(NC3=CC(=O)C(Oc4ccc(C)cc4-c4ccno4)=CC3=O)c2cc1OC` [Example 47, 2-(2-isoxazol-5-yl-4-methylphenoxy)-5-{[6-methoxy-7-(2-methoxyethoxy)quinazolin-4-yl]amino}benzo-1,4-quinone], in that order: 86%, 94% and 66%.
For the molecule `COCCOc1cc2ncnc(NC3=CC(=O)C(Oc4cccc(Cl)c4)=CC3=O)c2cc1OC` [Example 33, 2-(3-chlorophenoxy)-5-{[6-methoxy-7-(2-methoxyethoxy)quinazolin-4-yl]amino}benzo-1,4-quinone], the inhibition at 0.1 µM in assay [1] (ATP conc. 10 μM) was 84%. Also, the inhibition at 1 µM in assay [1] (ATP conc. 10 μM) worked out at 96%; in assay [1] (ATP conc. 1000 μM), 98%; at KDR it was 19%.
In the case of `COCCOc1cc2ncnc(NC3=CC(=O)C(Oc4ccc(Br)cc4)=CC3=O)c2cc1OC` [Example 46, 2-(4-bromophenoxy)-5-{[6-methoxy-7-(2-methoxyethoxy)quinazolin-4-yl]amino}benzo-1,4-quinone], in assay [1] (setting [2]), the inhibition at 0.1 µM came out at 93% and the inhibition at 1 µM was found to be 94%. For the same molecule, the inhibition at 1 µM at KDR stood at 79%.
Regarding `COCCOc1cc2ncnc(NC3=CC(=O)C(Oc4ccc(SC)cc4)=CC3=O)c2cc1OC` [Example 35, 2-{[6-methoxy-7-(2-methoxyethoxy)quinazolin-4-yl]amino}-5-[4-(methylthio)phenoxy]benzo-1,4-quinone], in assay [1] (ATP conc. 10 μM), the inhibition at 0.1 µM was determined as 87%. Further, the values for the inhibition at 1 µM (in assay [1] (ATP conc. 10 μM); in assay [1] (ATP conc. 1000 μM); at KDR) were 96%, 98% and 39%, respectively.
For the molecule `COCCOc1cc2ncnc(NC3=CC(=O)C(Sc4ccccc4)=CC3=O)c2cc1OC` [Example 24, 2-{[6-methoxy-7-(2-methoxyethoxy)quinazolin-4-yl]amino}-5-(phenylthio)benzo-1,4-quinone], the inhibition at 0.1 µM in assay [1] (setting [2]) was found to be 96%. Moreover, the inhibition at 1 µM came out at 92% in assay [1] (setting [2]), 96% in assay [1] (setting [3]) and 0% at KDR.
As to `COCCOc1cc2ncnc(NC3=CC(=O)C(Oc4ccc5cc(Br)ccc5c4)=CC3=O)c2cc1OC` [Example 51, 2-[(6-bromo-2-naphthyl)oxy]-5-{[6-methoxy-7-(2-methoxyethoxy)quinazolin-4-yl]amino}benzo-1,4-quinone], in assay [1] (setting [2]), the inhibition at 0.1 µM was found to be 91% and the inhibition at 1 µM worked out at 93%. Besides, on KDR, the inhibition at 1 µM turned out to be 105%.
`COCCOc1cc2ncnc(NC3=C(SCc4ccccc4)C(=O)C=C(OC)C3=O)c2cc1OC` [Example 19, 2-(benzylthio)-5-methoxy-3-{[6-methoxy-7-(2-methoxyethoxy)quinazolin-4-yl]amino}benzo-1,4-quinone]: in assay [1] (setting [2]), the inhibition at 0.1 µM turned out to be 41%. Also, the inhibition at 1 µM is 88% in assay [1] (setting [2]), 88% in assay [1] (setting [3]) and -10% on KDR.
In turn, `COCCOc1cc2ncnc(NC3=CC(=O)C(Oc4ccc(C(=O)Cc5ccccc5)cc4)=CC3=O)c2cc1OC` [Example 49, 2-{[6-methoxy-7-(2-methoxyethoxy)quinazolin-4-yl]amino}-5-[4-(phenylacetyl)phenoxy]benzo-1,4-quinone] yielded a concentration for half-maximal inhibition (IC50) in assay [1] (ATP conc. 10 μM) of 0.149 µM. In assay [1] (setting [2]), the inhibition at 0.1 µM was 88% and the inhibition at 1 µM came to 93%. Further, at KDR, the inhibition at 1 µM was 90%.
In the case of `COCCOc1cc2ncnc(NC3=CC(=O)C(Oc4ccc5c(c4)Cc4ccccc4-5)=CC3=O)c2cc1OC` [Example 53, 2-(9H-fluoren-2-yloxy)-5-{[6-methoxy-7-(2-methoxyethoxy)quinazolin-4-yl]amino}benzo-1,4-quinone], in assay [1] (setting [2]), the inhibition at 0.1 µM came to 90% and the inhibition at 1 µM came out at 94%. Also, at KDR, the inhibition at 1 µM came to 79%.
Take `COCCOc1cc2ncnc(NC3=CC(=O)C(Oc4cccc(C#N)c4)=CC3=O)c2cc1OC` [Example 27, 3-[(4-{[6-methoxy-7-(2-methoxyethoxy)quinazolin-4-yl]amino}-3,6-dioxocyclohexa-1,4-dien-1-yl)oxy]benzonitrile]: the midpoint of inhibition in assay [1] (ATP conc. 10 μM), the IC50, lay at 0.0344 µM. In addition, the inhibition at 0.1 µM in assay [1] (setting [2]) is 63%. Also, the inhibition at 1 µM in assay [1] (setting [2]) came out at 96%; in assay [1] (setting [3]), 98%; on KDR, 25%.
`COCCOc1cc2ncnc(NC3=CC(=O)C(Oc4ccccc4OCc4ccccc4)=CC3=O)c2cc1OC` [Example 52, 2-[2-(benzyloxy)phenoxy]-5-{[6-methoxy-7-(2-methoxyethoxy)quinazolin-4-yl]amino}benzo-1,4-quinone]: in assay [1] (setting [2]), the inhibition at 0.1 µM stood at 91% and the inhibition at 1 µM turned out to be 95%. Further, on KDR, the inhibition at 1 µM turned out to be 94%.
For the molecule `COCCOc1cc2ncnc(NC3=CC(=O)C(Oc4cccc(OC)c4)=CC3=O)c2cc1OC` [Example 28, 2-{[6-methoxy-7-(2-methoxyethoxy)quinazolin-4-yl]amino}-5-(3-methoxyphenoxy)benzo-1,4-quinone], the IC50 in assay [1] (ATP conc. 10 μM) was 0.0121 µM. Besides, the inhibition at 0.1 µM in assay [1] (ATP conc. 10 μM) is 83%. Also, the results for the inhibition at 1 µM (in assay [1] (ATP conc. 10 μM); in assay [1] (ATP conc. 1000 μM); on KDR) were 96%, 98% and 35%, respectively.
As for `CCOC(=O)c1c(C)[nH]c2ccc(OC3=CC(=O)C(Nc4ncnc5cc(OCCOC)c(OC)cc45)=CC3=O)cc12` [Example 45, ethyl 5-[(4-{[6-methoxy-7-(2-methoxyethoxy)quinazolin-4-yl]amino}-3,6-dioxocyclohexa-1,4-dien-1-yl)oxy]-2-methyl-1H-indole-3-carboxylate], in assay [1] (ATP conc. 10 μM), the IC50 was 0.0026 µM. Further, in assay [1] (setting [2]), the inhibition at 0.1 µM amounted to 92% and the inhibition at 1 µM is 93%. Moreover, the inhibition at 1 µM at KDR amounted to 99%.
